Test in all cases: NCI-60 cell line screen, 48 h
For test [1], the system named is RPMI-8226 leukemia.
The test system of test [2] is T-47D breast.
In test [3] the test system is SN12C renal.
Test [4] has as its system SK-MEL-28 melanoma.
In test [5] the test system is ACHN renal.
The subject of test [6] is MALME-3M melanoma.
Test [7] relates to M14 melanoma.
Test [8] deals with HOP-62 NSCLC.

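Exposure lasted 48 hours, with cells grown in 96-well plates and compounds tested at five concentrations. GI50 is the concentration that inhibits growth by half. TGI denotes the concentration required for complete inhibition of growth.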

`CCOC(=O)c1cnc2c(cnn2CC)c1NN=C(C)C`: the GI50 is 74.2 µM in test [1]; 29 µM in test [2]; 38.2 µM in test [3]; above 100 µM in test [4]; 24 µM in test [5]; above 100 µM in test [6]. The figures for the GI50 in test [7] and in test [8] were above 100 µM and 65.9 µM, respectively. Besides, the TGI in test [1], in test [2], in test [3], in test [4], in test [5] and in test [6] was above 100 µM in each case. Further, the TGI in test [7] and in test [8] was above 100 µM in each case.
Turning to `N#CC(=S)Nc1ccc(F)cc1`, the TGI in test [1] was 41.6 µM; in test [2], above 100 µM; in test [3] it was above 100 µM; in test [4], above 100 µM; in test [5] it was above 100 µM; in test [6] it was above 100 µM. Further, the TGI in test [7] and in test [8] was above 100 µM each time.
For the compound `Oc1ccc(-c2nc3ccc4[nH]ncc4c3c3c2CCCC3)c2cccnc12`, the GI50 in test [1] is 0.158 µM; in test [2], 0.697 µM; in test [3], 0.206 µM; in test [4], 0.498 µM; in test [5] it was 0.181 µM; in test [6], 0.523 µM. Further, the GI50 was 0.163 µM in test [7] and 0.16 µM in test [8]. The TGI was 4.12 µM in test [1]; 4.67 µM in test [2]; 6.79 µM in test [3]; 8.61 µM in test [4]; 3.07 µM in test [5]; 2.61 µM in test [6]. For the same compound, the TGI in test [7] is 2.21 µM; in test [8] it was 1.71 µM.
As to `COc1cc(/C=C/C(=O)c2cc(OC)c(OC)c(OC)c2)cc(OC)c1OC`, the GI50 is 2.56 µM in test [1]; 3.5 µM in test [2]; 4.02 µM in test [3]; 8.57 µM in test [4]; 4.73 µM in test [5]; 2.48 µM in test [6]. The GI50 in test [7] was 2.82 µM; in test [8], 4.07 µM. Also, the TGI came out at 19.4 µM in test [1]; 31.5 µM in test [2]; 20.8 µM in test [3]; 24.3 µM in test [4]; 46.8 µM in test [5]; 19.6 µM in test [6]. Further, the TGI came out at 12.7 µM in test [7] and 18.2 µM in test [8].
For `CC(C)(C)c1nnc2n(c1=O)N=CC(c1ccc(Br)cc1)S2` (centres undefined), the GI50 in test [1] was 25.6 µM; in test [2], 23.8 µM; in test [3] it was 27.7 µM; in test [4] it was 34.2 µM; in test [5], 29.6 µM; in test [6], 26.9 µM. In addition, the GI50 is 24.4 µM in test [7] and 37.5 µM in test [8]. Further, the TGI in test [1] is above 100 µM; in test [2] it was above 100 µM; in test [3], 57.2 µM; in test [4], above 100 µM; in test [5], 75.9 µM; in test [6] it was 79.7 µM. Moreover, the TGI was 63.1 µM in test [7] and above 100 µM in test [8].
Consider `COc1cc2c3c(n(C)c(=O)c2cc1OC)-c1cc2c(cc1/C3=C\[C@@H](N)CCCCN)OCO2`, for which the GI50 is 2.57 µM in test [1]; 13 µM in test [2]; 0.46 µM in test [3]; 1.39 µM in test [4]; 2.46 µM in test [5]; 1.84 µM in test [6]. Also, the GI50 was 6.9 µM in test [7] and 3.14 µM in test [8]. The TGI in test [1] is 35.2 µM; in test [2], above 100 µM; in test [3], 6.95 µM; in test [4], above 100 µM; in test [5] it was above 41.4 µM; in test [6], 13.3 µM. For the same compound, the results for the TGI in test [7] and in test [8] were above 100 µM and 26.9 µM, respectively.
For `COC(=O)c1cc2c(cc1Cl)SC(N(N(C)C)S(=O)(=O)c1ccc(Cl)cc1)=NS2(=O)=O`, the GI50 was 17.1 µM in test [1]; 8.42 µM in test [2]; 19.2 µM in test [3]; 15.9 µM in test [4]; 17.8 µM in test [5]; 13.8 µM in test [6]. In addition, the GI50 in test [7] is 15.8 µM; in test [8], 19.6 µM. For the same compound, the TGI stood at 53.4 µM in test [1]; 26.7 µM in test [2]; 47.7 µM in test [3]; 29.3 µM in test [4]; 38.5 µM in test [5]; 40 µM in test [6]. Moreover, the figures for the TGI in test [7] and in test [8] were 32 µM and 48.7 µM, respectively.
With `CC(C)[C@@H](CS(=O)(=O)C(C)C)N1C(=O)[C@@](C)(CC(=O)O)C[C@H](c2cccc(Cl)c2)[C@H]1c1ccc(Cl)cc1`, the GI50 was 15 µM in test [1]; 7.91 µM in test [2]; 19.8 µM in test [3]; 15.5 µM in test [4]; 0.394 µM in test [5]; 0.178 µM in test [6]. Also, the GI50 in test [7] is 14.1 µM; in test [8] it was 17.2 µM. Besides, the TGI was 53 µM in test [1]; above 92 µM in test [2]; above 70.5 µM in test [3]; 61.2 µM in test [4]; 15.4 µM in test [5]; 6.91 µM in test [6]. In addition, the TGI came out at 59.6 µM in test [7] and 56.7 µM in test [8].
`CC(C)CC(=O)CC(O)C(Cl)(Cl)Cl` (centres undefined): the TGI in test [1], in test [2], in test [3], in test [4], in test [5] and in test [6] was above 100 µM throughout. Also, the TGI in test [7] and in test [8] was above 100 µM in each case.
On to `CC(C)(C)n1cc(-c2ccnc(NCCNS(=O)(=O)c3cccc4ccccc34)c2)c(-c2cccc(F)c2)n1`, for which the GI50 in test [1] was 6.2 µM; in test [2], 4.22 µM; in test [3], 13.7 µM; in test [4], 16.6 µM; in test [5], 18.9 µM; in test [6], 15.3 µM. In addition, the GI50 was 11.7 µM in test [7] and 17.2 µM in test [8]. The TGI was 44.9 µM in test [1]; 47.8 µM in test [2]; 29 µM in test [3]; 37 µM in test [4]; 49 µM in test [5]; 36.8 µM in test [6]. For the same compound, the TGI in test [7] was 48.2 µM; in test [8] it was 46.3 µM.

(Values after PubChem BioAssay (NCI).)
